Measurements reported in US20120052010A1, “IMAGING TUMOR PERFUSION, OXIDATIVE […] DYNAMIC ACE PET IN PATIENTS WITH HEAD AND NECK CANCER DURING RADIOTHERAPY” (GE HEALTHCARE LIMITED, priority 2009, published 2012).
Values joined by “and” are separate entries in the source; they are usually repeats but may differ in a detail not shown here. Identical values can stand only once.

Legend:
[1] = resting normal volunteers, myocardial O2 consumption 3-4 micromole/min/gram; cited from earlier work
[2] = tested on: primary tumor, squamous cell carcinoma of the head and neck; assay: Dynamic ACE PET, tumor clearance rate of [11C] (tumor oxidative metabolism, OXm); format: in vivo, human
Description: Twenty nine dynamic ACE PET scans were performed in the nine patients. Five patients were scanned with a dedicated PET device (Siemens ECAT HR^+, Knoxyille, Tenn., USA) and PET images were coregistered to dose-planning CT images for anatomical localization. Four patients were scanned with a hybrid PET-CT device (GE Discovery ST, Milwaukee, Wis., USA). ACE PET was studied in all patients within 7 days before the start of radiotherapy (baseline). Due to logistic problems not all patients could be scanned at all subsequent time points. Five patients were scanned after a mean dose of 15 Gy (dose range 9.6-20Gy), 7 patients after a mean dose of 30 Gy (range 24-37Gy) and 8 patients after a mean dose of 55 Gy (range 42-68Gy).
(§1) Ten minutes after the heart scan, the head and neck region was imaged immediately after an intravenous bolus injection of 10 MBq/kg body weight ACE. The scan time was 32 minutes with time frames 12×5 seconds (s), 6×10 s, 4×30 s, 4×60 s, 2×120 s and […].
Primary tumors were clearly visualized in all scans. A time-activity curve (TAC) of the primary tumor was obtained from a region of interest (ROI) delineating the highest uptake in all ACE scans. TACs were analyzed by fitting an exponential curve to the data collected between 4 and 32 min Tumor oxidative metabolism was derived from the below equation.
where Y is the tumor radioactivity (Bq/cc), A is a constant, t is time (min), and OXm is the clearance rate of [^11C] in min^−1. The average R^2 of the fit was 0.93.

[3] = tested on: primary tumor, squamous cell carcinoma of the head and neck; assay: Dynamic ACE PET, tumor perfusion (absolute extraction rate and relative perfusion index rF); format: in vivo, human
Description: In a subset of ACE scan sessions (n=23) an image-derived arterial input function for absolute quantification of tumor perfusion was acquired by dynamic imaging of the heart immediately after injection of a 0.5 MBq/kg body weight ACE bolus.
as §1
The arterial blood input function was derived by placing a small ROI in the left ventricular cavity of the heart scan to obtain a TAC of the first pass of the bolus. Arterial blood activities were integrated by the area-under-the-curve of the first bolus passage through the chamber and normalized to the injected dose of the subsequent tumor scan.
The peak activity of the primary tumor deposited at the end of the first bolus pass was assessed. The absolute extraction rate (in mL/min/mL tissue) was calculated by dividing the first-pass peak tumor activity by the arterial blood integral, assuming that systemic circulation was unaltered between the heart and tumor scan. As the arterial input was not obtained in all sessions, a relative perfusion index (rF) was quantified by the ratio of initial peak retention in the tumor to that of the cerebellum. […] Absolute quantification of tumor perfusion in 23 scans yielded a mean of 0.47±0.01 mL/min/mL The mean of simultaneous rF measurements was 5.87±0.39 and the two methods were linearly correlated (r=0.57, p=0.005).

[4] = tested on: primary tumor, squamous cell carcinoma of the head and neck; assay: FDG-PET tumor glucose uptake (Tglu); format: in vivo, human
Description: FDG-PET was performed at baseline using a standard clinical whole-body protocol, in which the head and neck area was scanned one hour after intravenous injection of 5 MBq/kg body weight FDG. Baseline ACE and FDG scans were performed on the same or adjacent days.
Whole-body scanning was performed one hour after intravenous injection of 5 MBq/kg body weight FDG. Six patients were examined by PET/CT and four patients were studied by PET alone. The patients were instructed to remain recumbent and avoid voicing and other uses of neck muscles during the uptake period.
Tumor glucose uptake (Tglu) was measured from the FDG data as standard uptake values (SUV), determined by the radioactivity concentration of the tumor ROI, divided by injected activity per gram body weight.

## C[11C](=O)O [ACE, 1-[^11C]-Acetate]
[1]
  OXm values in myocardium: 0.05 to 0.07 min⁻¹
[2]; CR group, 15 Gy, N=4
  OXm, Mean ± SE: 0.0142 min⁻¹
[2]; CR group, 30 Gy, N=4
  OXm, Mean ± SE: 0.0144 min⁻¹
[2]; CR group, 55 Gy, N=5
  OXm, Mean ± SE: 0.0140 min⁻¹
[2]; CR group, Baseline, N=6
  OXm, Mean ± SE: 0.0122 min⁻¹
[2]; PR group, 30 Gy, N=3
  OXm, Mean ± SE: 0.0126 min⁻¹
[2]; PR group, 55 Gy, N=3
  OXm, Mean ± SE: 0.0110 min⁻¹
[2]; PR group, Baseline, N=3
  OXm, Mean ± SE: 0.0065 min⁻¹
[3]; 23 scans with absolute quantification
  mean of simultaneous rF measurements: 5.87±0.39
[3]; 23 scans, arterial input from left ventricular blood pool imaging
  absolute quantification of tumor perfusion (absolute ACE extraction rate), mean: 0.47 mL/min/mL and 0.47±0.01 mL/min/mL
[3]; CR group, 15 Gy
  rF, Mean ± SE: 7.87
[3]; CR group, 30 Gy
  rF, Mean ± SE: 7.29
[3]; CR group, 55 Gy
  rF, Mean ± SE: 5.00
[3]; CR group, Baseline
  rF, Mean ± SE: 5.68
[3]; PR group, 30 Gy
  rF, Mean ± SE: 6.61
[3]; PR group, 55 Gy
  rF, Mean ± SE: 4.51
[3]; PR group, Baseline
  rF, Mean ± SE: 6.42
[3]; all patients
  extraction rate in cerebellum (reference region): 0.08±0.03 mL/min/mL
[3]; individual patients (CR and PR), 15 Gy
  primary tumor rF (relative perfusion): 6.93 and 5.00 and 8.22 and 7.07 and 9.25
[3]; individual patients (CR and PR), 30 Gy
  primary tumor rF (relative perfusion): 8.51 and 7.39 and 8.48 and 3.95 and 8.06 and 6.54 and 6.05
[3]; individual patients (CR and PR), 55 Gy
  primary tumor rF (relative perfusion): 5.78 and 5.00 and 6.34 and 2.20 and 2.81 and 7.76 and 3.64
[3]; individual patients (CR and PR), Baseline
  primary tumor rF (relative perfusion, tumor/cerebellum initial peak retention): 4.10 and 7.63 and 6.47 and 5.17 and 6.26 and 4.90 and 3.96 and 5.91 and 8.93

## OC[C@H]1OC(O)[C@H]([18F])[C@@H](O)[C@@H]1O (stereo partly drawn) [FDG, ^18F-fluoro-2-deoxy-D-glucose]
[4]; individual patients, baseline FDG-PET, one hour after i.v. 5 MBq/kg FDG
  Tglu (tumor glucose uptake, standard uptake value): 4.6 SUV and 13.4 SUV and 8.5 SUV and 6.8 SUV and 4.9 SUV and 16.3 SUV and 13.8 SUV and 3.9 SUV and 26.1 SUV
[4]; nine patients, baseline
  Tglu, all primary tumors: 10.9±2.4 SUV
